Paper PMC4893612 (Scientific Reports, 2016)
Like-named read-outs stand apart in the source and are kept apart here.

Legend:
OPM-2 cells = assay: 3H-VLX1570 retention after wash-out in OPM-2 cells; assay type: cell-based, human; settings: 1 hour exposure, 17 hours in drug-free medium
RPMI8226 = assay: MTT antiproliferative assay, RPMI8226; assay type: cell-based; settings: Homo sapiens, RPMI-8226, 72 hours
Procedure: Cell viability was monitored by the MTT (3-(4,5-dimethylthiazol-2-yl)-2,5-diphenyltetrazolium bromide) assay. For the MTT assay, cells were suspended at 5 × 10^5 cells/ml, and 100 μl aliquots were dispended into 96-well microtiter plates and exposed to drugs as described using DMSO control. At the end of incubations, 10 μl of a stock solution of 5 mg/ml MTT (3-(4,5-dimethylthiazol-2-yl)-2,5-diphenyltetrazolium bromide), was added into each well, and the plates were incubated 4 hours at 37 °C. Formazan crystals were dissolved with 100 μl of 10% SDS/10 mM HCl solution overnight at 37 °C. Since MTT assays are affected by mitochondrial activity, and since OXPHOS is affected by VLX1570 (unpublished observation), we used the acid phosphatase method[49] to determine cell viability in some experiments. After washing twice with PBS, cells were lysed in 100 μl of 0.1 M sodium acetate, 0,1% Triton X-100, p-nitrophenylphosphate (Pierce Biotechnology Inc, Rockford, IL) and incubated for 90 min at 37 °C. At the end of the incubation, 10 μl NaOH was added to each well and A405 was determined.

USP14 [1] = target: T1, USP14 (Homo sapiens, UniProt P54578); assay: HA-Ub-VS active-site labeling of purified 19S, USP14; assay type: biochemical; parameters: purchased Boston Biochem E-366; settings: purified 19S RP; 2.5 μM
T1 sequence (P54578 whole entry): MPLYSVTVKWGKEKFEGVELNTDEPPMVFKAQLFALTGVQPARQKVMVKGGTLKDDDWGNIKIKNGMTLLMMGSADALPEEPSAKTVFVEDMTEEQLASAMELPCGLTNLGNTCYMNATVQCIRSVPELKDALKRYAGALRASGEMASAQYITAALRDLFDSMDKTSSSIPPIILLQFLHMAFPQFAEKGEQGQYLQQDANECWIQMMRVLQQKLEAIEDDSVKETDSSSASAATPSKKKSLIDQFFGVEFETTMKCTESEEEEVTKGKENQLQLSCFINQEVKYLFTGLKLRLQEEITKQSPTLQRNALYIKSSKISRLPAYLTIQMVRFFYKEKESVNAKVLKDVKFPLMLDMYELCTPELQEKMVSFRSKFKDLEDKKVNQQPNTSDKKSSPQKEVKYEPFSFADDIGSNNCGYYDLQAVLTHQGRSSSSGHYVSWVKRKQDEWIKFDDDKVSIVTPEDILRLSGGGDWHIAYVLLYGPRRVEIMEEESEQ
Procedure: Cell extract proteins were resolved by Tris-Acetate PAGE gels (Invitrogen, Carlsbad, CA) and transferred onto a polyvinylidene difluoride (PVDF) membrane for western blotting. For Ub-VS labeling, we lysed cell pellets from control or treated cells with buffer (50 mM HEPES pH 7.4, 250 mM sucrose, 10 mM MgCl2, 2 mM ATP, 1 mM DTT and 1%NP-40) on ice for 30 min and removed debris by centrifugation. We labeled 25 μg of protein with 1 μM Ub-VS for 30 min at 37 °C. We resolved samples by SDS-PAGE and performed immunoblotting. For HA-Ub-VS labeling, we pretreated purified 19S (5 nM) with DMSO or 2.5, 5, 10, 15 or 25μM 1570 for 10 min at room temperature, which followed with labeling with 1 μM HA-Ub-VS for 30 min at 37 °C and immunoblotting.

USP14 [2] = target: T1, USP14; assay: SPR binding to recombinant USP14, NTA chip
Excerpt: A BIACORE T200 was used for characterization of the interaction between compounds and USP14, UCHL5 and 26S proteasome. The standard BIACORE protocols were used for NTA chip (Ni/His-tag immobilization) and CM7 chip for compound interaction studies with slight modification described below. The x6 his-tagged USP14 and UCHL5 proteins were coupled to a Series S NTA BIACORE sensor chip in the BIACORE T200 using the his-tags for adherence of the proteins to the surface and an amine coupling procedure for covalent attachment to the chip surface. NTA chip was cleaned using three 500 μM EDTA injections followed by an injection of 500 μM Ni^2+ and activation of the chip surface with EDC/NHS injection according to BIACORE standard methods. Each chip has four separate areas, which were handled separately during the immobilization procedure. Area 1 was used as blank reference surface, area 2–4 was coupled with investigated recombinant proteins or complexes. Proteins were diluted in running buffer (10 mM HEPES, 150 mM NaCl, 0,005% Tween 20) to typically 10 μg/ml before injection(1 mL) over the prepared surfaces. […] The immobilization procedure was followed by injections of compound concentration series of VLX1570. Concentration series were set up with ×3 and ×2 dilution series ending with the highest concentration 200 μM for the consecutive measurements of changes of refractive index. Compounds were kept in stock concentrations of 10 mM in DMSO and diluted in running buffer down to the test concentration. Rmax and KD were calculated using Langmuir binding isotherms as provided in the Biacore software.

USP14 [3] = target: T1, USP14; assay: Cellular thermal shift assay (CETSA) in OPM-2 cells; assay type: cell-based; parameters: endogenous in cells; host or cells: OPM-2 multiple myeloma cells; settings: 1 μM, 1 hour
Procedure: For CETSA, the same amount of cells as one sample was treated with required condition and collected as described. Each sample was suspended in PBS supplemented with protease inhibitors after they were washed in PBS. And then these samples were heated at 51, 53, or 55 °C for 3 min. Immediately after heating, tubes were removed and incubated at room temperature for 3 min, and then snap-frozen in liquid nitrogen. Samples were freeze-thawed twice and centrifuged at 20,000 g for 20 min at +4 °C and supernatants were analysed by Western-blotting.

non-proteasomal DUBs = tested on: non-proteasomal DUBs; parameters: method as in PMID 25854145; settings: cited from earlier work
OPM-Bz^R cells = assay: 3H-VLX1570 cellular uptake, OPM-Bz^R versus parental cells; settings: OPM-Bz^R cells compared to parental cells

SMILES: C=CC(=O)N1CC/C(=C\c2ccc(F)c([N+](=O)[O-])c2)C(=O)/C(=C/c2ccc(F)c([N+](=O)[O-])c2)C1 [VLX1570]
- drug associated with the cells after wash-out (OPM-2 cells): Approximately 70%
- IC50 (RPMI8226): 0.074 ± 0.002 µM
- inhibition of USP14 activity (Ub-VS labeling) (USP14 [1]): strongly inhibited
- Kd (USP14 [2]; NTA chip, protein from Karolinska Institute Protein Science Facility, read-out: USP14(K) KD): 18 µM
- Kd (USP14 [2]; NTA chip, protein from ProSpec, read-out: USP14(P) KD): 8.1 µM
- Kd (USP14 [2]; NTA chip, protein from Ubiquigent, read-out: USP14(U) KD): 1.5 µM
- Kd (USP14 [2]; two different sources of recombinant protein, Ni2+-histidine immobilisation, read-out: dissociation constant (KD) for binding to recombinant USP14): 1.5 to 18 µM
- thermostabilization of USP14 (USP14 [3]): thermostabilized
- thermostabilization of USP14 (USP14 [3]; 53°–55 °C): 2.5 fold control
- inhibition of a panel of non-proteasomal DUBs (non-proteasomal DUBs): not inhibiting
- cellular uptake of radiolabeled drug (OPM-Bz^R cells): decreased uptake
